In ChEMBL document CHEMBL4732253, “Free energy perturbation in the design of EED ligands as inhibitors of polycomb repressive complex 2 (PRC2) methyltransferase” (Bioorg Med Chem Lett, 2021):
Converted amounts (≈) assume the structure as drawn.

How the values were obtained:
[1] = Inhibition of PRC2 in human G-401 cells assessed as reduction in methylation of H3K27 trimethylation by HTRF assay; assay type: cell-based
[2] = target: Polycomb protein EED (Homo sapiens, UniProt O75530); experiment: Binding affinity to EED (unknown origin) assessed as dissociation constant by SPR analysis
[3] = Lipophilicity, log D of the compound in Octanol/phosphate buffer at pH 7.4 by shake-flask method; assay type: physicochemical
[4] = Intrinsic clearance in human liver microsomes; assay type: ADME, Microsome; settings: read-out: CLH
[5] = Intrinsic clearance in rat hepatocytes assessed per million cells; assay type: ADME, cell-based, Hepatocyte; settings: read-out: CLH
[6] = Solubility of compound in PBS at pH 7.4 measured for 24 hrs; assay type: physicochemical

Sequence of Polycomb protein EED (O75530 whole entry): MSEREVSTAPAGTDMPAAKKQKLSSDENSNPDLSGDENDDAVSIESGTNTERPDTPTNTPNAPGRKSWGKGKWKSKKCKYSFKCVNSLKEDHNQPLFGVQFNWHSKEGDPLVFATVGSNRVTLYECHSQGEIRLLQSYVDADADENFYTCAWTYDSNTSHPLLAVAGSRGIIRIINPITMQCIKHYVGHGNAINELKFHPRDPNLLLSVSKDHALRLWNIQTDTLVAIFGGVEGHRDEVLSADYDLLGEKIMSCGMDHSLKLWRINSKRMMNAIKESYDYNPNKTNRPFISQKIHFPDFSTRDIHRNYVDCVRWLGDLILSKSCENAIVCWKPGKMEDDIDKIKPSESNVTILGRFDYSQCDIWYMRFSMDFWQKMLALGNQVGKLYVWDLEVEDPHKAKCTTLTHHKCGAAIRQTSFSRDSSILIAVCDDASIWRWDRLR

| SMILES | IC50 [1] [nM] | Kd [2] [nM] | logD [3] | microsomal CLint [4] [µL/min/mg] | hepatocyte CLint [5] [µL/min/1e6 cells] | solubility at 24 h [6] [µM] |
| --- | --- | --- | --- | --- | --- | --- |
| Cc1ncccc1-c1cnc(NCc2c(F)cc(F)c3c2CCO3)n2cnnc12 | 11 | 1200 | 2.6 | 9 | 9 | 4 (≈ 1.58 µg/mL) |
| Cc1ncccc1-c1cnc(NCc2c(F)cc(O)c3c2CCO3)n2cnnc12 | 15 |  | 1.8 | 9 | 50 | 5 (≈ 1.96 µg/mL) |
| COc1cc(F)c(CNc2ncc(-c3cccnc3C)c3nncn23)c2c1OCC2 | 15500 | 305000 | 2.3 | 20 | 4 | 21 (≈ 8.53 µg/mL) |
| Cc1ncccc1-c1cnc(NCc2c(F)ccc3c2CCO3)n2cnnc12 | 5 | 400 | 2.5 | 15 | 6 |  |
| Cc1ncccc1-c1cnc(NCc2c(F)cc(C#N)c3c2CCO3)n2cnnc12 | 102 | 15000 | 2.2 | 28 | 10 | 3 (≈ 1.2 µg/mL) |
| Cc1ncccc1-c1cnc(NCc2c(F)cc(Cl)c3c2CCO3)n2cnnc12 | 16 | 2400 | 3.2 | 20 | 9 | 0.2 (≈ 0.0822 µg/mL) |
| Cc1ncccc1-c1cnc(NCc2c(F)cc(N)c3c2CCO3)n2cnnc12 | 50 | 500 | 1.8 | 13 | 7 |  |
